Counter-ions that a name gives are not always drawn. Like-named read-outs stand apart in the source and are kept apart here.

By IC50 is commonly meant the concentration that gives 50% inhibition.

One test has as its target rHSP90. The test can be described thus: HSP90 binding assay (BIACORE SPR; inhibition of binding between rHSP90 and fixed herbimycin A). The following applies: concentration inhibiting binding between rHSP90 (50 μg/mL) and fixed herbimycin A by 50%, BIACORE-X SPR; read-out: HSP90 inhibitory activity IC50. The text has this:
The HSP90 binding assay system is a system for detecting the change of mass as SPR signal caused by the binding between herbimycin A fixed on a sensor chip and rHSP90 by BIACORE-X, in which 17-(6-amino hexylamino)herbimycin A is fixed through a carboxyl group on the surface of the sensor chip (CM5, BIACORE) on which carboxymethyldextran has been introduced. The method was according to the protocol of BIACORE. In addition, 17-(6-aminohexylamino)herbimycin A was synthesizes as described below.
rHSP90 (Stressgen Biotechnologies Corp., Victoria, BC Canada) at 50 μg/mL was exposed for 10 seconds to the surface of the sensor chip on which herbimycin A was fixed and the SPR signal (numerical value of interaction) was detected.
After mixing rHSP90 protein (5×10^−7M (50 μg/mL)) with the triazole derivative of the present invention, the mixture was exposed for 10 seconds to the surface of the sensor chip on which herbimycin A was fixed, and the SPR signal was measured by BIACORE-X.
Next, using following formula (1), the inhibitory activity (binding inhibition rate (%)) of the compound of the present invention to the binding between rHSP90 and fixed herbimycin A was obtained.
binding inhibition rate(%)=((b−s)/b)×100 Formula (1)
wherein b is the SPR signal when the compound of the present invention is not added to the sample: s is the SPR signal when the compound of the present invention is added to the sample.
A general note: Surface plasmon resonance follows binding to a sensor surface in real time, without labels.

For test [1], the system named is HSP90 client protein ERα in MCF7 cells. In words: Measurement test for amount of HSP90 client protein ERα (Western blotting). It is filed as cell-based. The following applies: MCF7 cells treated 16 hours at 3-5 concentrations. As to the method: (§1) MCF7 cells (American Type Culture Collection, Rockville, Md.) were treated with the compounds of the present invention at various concentrations for 16 hours to confirm that the HSP90 inhibitors of the present invention induce a depression of intracellular concentration of the client protein or target polypeptide that bind to HSP90. The amount of the HSP90 client protein Her2 and ERα was evaluated by the Western blotting method.
(§2) One million cells were seeded in a 6 cm dish, and 24 hours later the compounds of the present invention (Example 1-2, Example 2-1, Example 2-13, Example 2-2, Example 3-4, Example 2-5, Example 3-16, Example 3-6, Example 2-7, Example 3-27, Example 2-10 and Example 3-18) were added. Cells treated with the compounds were washed, mixed with 150 μl of lysis buffer (RIPA, 150 mM NaCl, 1% NP40, 0.1% deoxycholate (sodium salt), 0.1% SDS, 1 mM EDTA, 10 mM Tris-HCl (pH 8.0)) and incubated at 4° C. for 30 minutes. The cell lysates were centrifuged (15,000 rpm, 20 minutes) and protein (20 μg) of the supernatant was subjected to SDS polyacrylamide gel electrophoresis (SDS-PAGE). After finishing the electrophoresis, proteins in the gel were transferred to a PVDF membrane. The membrane after the transfer was treated with a primary antibody against the HSP90 client protein (anti Her2 or anti ERa antibody, both from Santa Cruz Biotechnology, Santa Cruz, Calif.), then treated with secondary antibodies (anti-rabbit Ig, horse radish peroxidase conjugated F(ab′)2 fragment (derived from donkey): Amersham Biosciences, UK Limited, Buckinghamhshire, UK.) and then the amount of the client protein was detected as the intensity of chemiluminescence signal with a chemiluminescence reagent (ECL: Amersham Biosciences UK Limited, Buckinghamshire, UK).

Test [2] has as its system HSP90 client protein Her2 in MCF7 cells. In words: Measurement test for amount of HSP90 client protein Her2 (Western blotting). The following applies: MCF7 cells treated 16 hours at 3-5 concentrations. It is filed as cell-based. The method, then: as §1, §2
Background: A western blot detects proteins with antibodies after separation by electrophoresis.

In test [3] the test system is Human breast cancer cells (MCF7). The test can be described thus: Antiproliferative activity on MCF7 cells (methylene blue method). It is filed as cell-based. The following applies: MCF7 cells, 72 hours treatment, 660 nm absorbance after methylene blue staining, read-out: Antiproliferative activity IC50. The method, then:
Human breast cancer cells (MCF7) were treated with samples of various concentrations of known HSP90 inhibitors (that is, geldanamycin, herbimycin, radicicol and PU3) and the compounds of the present invention for 72 hours to confirm the effect of the triazole derivatives of the present invention on the cell growth. The cell ratio after the drug treatment was evaluated by measuring 660 nm absorbance by a microplate reader (BioRad) after staining the cells with the methylene blue method.
Cells were distributed to wells of 96 well plates at 2000 cells per well and treated with drugs 24 hours later. Further, the medium was removed 72 hours later and the cells were fixed by adding 50 μl of methanol and standing at room temperature for 2 minutes. After removing methanol, 100 μl of a staining solution was added and stained for 30 minutes. After washing 3 times with 200 μl of distilled water, 3% HCl solution was added, and the 660 nm absorbance of methylene blue was measured by a microplate reader (BioRad).
Next, the antiproliferative activity rate (%) was obtained by the formula (2) below.
Antiproliferative activity rate(%)=((B−A)/B)×100 Formula (2)
wherein B is 660 nm absorbance of the sample when the compound of the present invention is not added, and A is 660 nm absorbance of the sample when the compound of the present invention is added.
From the concentration of the triazole derivative of the present invention and the antiproliferative activity rate, the concentration was obtained using the above formula, at which the cell growth was suppressed by 50% by comparing with the control, and termed an IC50 value.
The antiproliferative activity rate (%) was obtained for SH-b04, SH-b05 and SH-b06 described above by a similar manner to that of the triazole derivatives of the present invention.

The next test deals with Human lung cancer H460. The test can be described thus: Antitumor effect on nude mice transplanted with human lung cancer H460. It is filed as in vivo. To be noted: tail vein, starting day = 1.0. The method, then: Antitumor Effect on Nude Mice Transplanted with Human Lung Cancer
Human lung cancer H460 tumor fragment, which had been passaged subcutaneously in nude mice, was made into about 3 mm fragment and transplanted subcutaneously to the back of nude mice using a trocar. When the tumor volume grew to about 50 mm^3 or above, the compound of the present invention was administered to the tail vein once a day for 5 or 7 days every day. The compound of the present invention was dissolved in DMSO, mixed with TWEEN 80, and then diluted with a 5% glucose injection solution and used. The vehicle of the compound was administered to the control group of OH-a01. The control groups in other experiments were not treated. The tumor volume was measured on the first administration day and on the evaluation day (7 or 8 days after the start of the administration), and the relative tumor volume of the evaluation day was obtained from the tumor volume on the first administration day. Further, the tumor volume was calculated by measuring the major axis (Lmm) and minor axis (Wmm) of the tumor and by the formula (L×W^2)/2.
Relative tumor volume represents the average relative tumor volume on day 7 after the start of the administration, assuming the tumor volume of the starting day is 1.0.
Relative tumor volume represents the average relative tumor volume on day 8 after the start of the administration, assuming the tumor volume of the starting day is 1.0.

For `COc1ccc(-n2c(NS(C)(=O)=O)nnc2-c2cc(C(C)C)c(O)cc2O)cc1` [Example N1-a08, N-[5-(2,4-dihydroxy-5-isopropyl-phenyl)-4-(4-methoxy-phenyl)-4H-[1,2,4]triazol-3-yl]-methanesulfonamide], the IC50 stood at 290 nM at rHSP90 and 180 nM in test [3] (Homo sapiens, MCF7, 72 h). Besides, the “amount of HSP90 client protein ERα” value in test [1] is given as “depression”. Moreover, the “amount of HSP90 client protein Her2” value in test [2] was “depression”.

Regarding `COc1ccc(-n2c(-c3cc(C(C)C)c(O)cc3O)nnc2S(C)(=O)=O)cc1` [SFN-a08, 4-isopropyl-6-[5-methanesulfonyl-4-(4-methoxy-phenyl)-4H-[1,2,4]triazol-3-yl]-benzene-1,3-diol], the IC50 on rHSP90 amounted to 94 nM; in test [3] (Homo sapiens, MCF7, 72 h), 270 nM. For the same molecule, the “amount of HSP90 client protein ERα” value in test [1] was “depression”. In addition, the “amount of HSP90 client protein Her2” value in test [2] is listed as “depression”.

For the molecule `CC(C)c1cc(-c2n[nH]c(=O)n2-c2ccc(N3CCOCC3)cc2)c(O)cc1O` [OH-a01, 4-{5-hydroxy-4-[4-(morpholin-4-yl)-phenyl]-4H-[1,2,4]triazol-3-yl}-6-isopropyl-benzene-1,3-diol], the IC50 at rHSP90 turned out to be 140 nM; in test [3] (Homo sapiens, MCF7, 72 h), 4.9 nM. Further, the “amount of HSP90 client protein ERα” value in test [1] was “depression”. In addition, in test [2], the “amount of HSP90 client protein Her2” value is reported as “depression”. In addition, the “Relative tumor volume (Average ± SD)” value with Human lung cancer H460 (Table 8, 3.8 mg/kg/day, 7 days continuous, day 7, control group 7.3 ± 1.7) was 3.3 ± 0.7; in the test on Human lung cancer H460 (Table 8, 7.5 mg/kg/day, 7 days continuous, day 7, control group 7.3 ± 1.7), 1.7 ± 0.5.

For the molecule `CC(C)c1cc(-c2n[nH]c(=O)n2-c2ccc(O)cc2)c(O)cc1O` [OH-a11, 5-(2,4-dihydroxy-5-isopropylphenyl)-4-(4-hydroxyphenyl)-4H-[1,2,4]triazol-3-one], the 50% inhibitory concentration (IC50) at rHSP90 was found to be 220 nM; in test [3] (Homo sapiens, MCF7, 72 h), 77 nM. For the same molecule, the “amount of HSP90 client protein ERα” value in test [1] is reported as “depression”. Besides, in test [2], the “amount of HSP90 client protein Her2” value was “depression”.

On to `COc1ccc(-n2c(-c3cc(C(C)C)c(O)cc3O)nnc2S(=O)(=O)CCCN(C)C)cc1` [SFN2-a08, 4-[5-(3-dimethylamino-propane-1-sulfonyl)-4-(4-methoxy-phenyl)-4H-[1,2,4]triazol-3-yl]-6-isopropyl-benzene-1,3-diol], for which the IC50 amounted to 700 nM at rHSP90 and 69 nM in test [3] (Homo sapiens, MCF7, 72 h). The “amount of HSP90 client protein ERα” value in test [1] is on record as “depression”. The “amount of HSP90 client protein Her2” value in test [2] was “depression”.

Take `CC(C)c1cc(-c2n[nH]c(=O)n2-c2ccc(CN3CCN(C)CC3)cc2)c(O)cc1O` [OH-a13, 5-(2,4-dihydroxy-5-isopropylphenyl)-4-[4-(4-methylpiperazin-1-ylmethyl)phenyl]-2,4-dihydro-[1,2,4]triazol-3-one]: the IC50 amounted to 250 nM on rHSP90 and 71 nM in test [3] (Homo sapiens, MCF7, 72 h). Besides, the “amount of HSP90 client protein ERα” value in test [1] is recorded as “depression”. The “amount of HSP90 client protein Her2” value in test [2] is recorded as “depression”. Besides, the “Relative tumor volume (Average ± SD)” value worked out at 1.4 ± 0.5 in the test on Human lung cancer H460 (Table 10, 50 mg/kg/day, 5 days continuous, day 8, control group 6.5 ± 2.0) and 1.1 ± 0.3 with Human lung cancer H460 (Table 10, 100 mg/kg/day, 5 days continuous, day 8, control group 6.5 ± 2.0).

Turning to `CC(C)c1cc(-c2nnc(S(C)(=O)=O)n2-c2ccc(CN3CCOCC3)cc2)c(O)cc1O` [SFN-a02, 4-isopropyl-6-{5-methanesulfonyl-4-[4-(morpholin-4-ylmethyl)-phenyl]-4H-[1,2,4]triazol-3-yl}-benzene-1,3-diol], the IC50 at rHSP90 came to 120 nM; in test [3] (Homo sapiens, MCF7, 72 h), 150 nM. Also, the “amount of HSP90 client protein ERα” value in test [1] is “depression”. Moreover, the “amount of HSP90 client protein Her2” value in test [2] is recorded as “depression”.

Regarding `CC(C)c1cc(-c2n[nH]c(=O)n2CCCN2CCCC2=O)c(O)cc1O` [OH-a30, 5-(2,4-dihydroxy-5-isopropyl-phenyl)-4-[3-(2-oxo-pyrrolidin-1-yl)propyl]-2,4-dihydro-[1,2,4]triazol-3-one], the half-maximal inhibitory concentration (IC50) on rHSP90 worked out at 140 nM; in test [3] (Homo sapiens, MCF7, 72 h), 1100 nM.

With `CC(C)c1cc(-c2n[nH]c(=S)n2CC2CCCO2)c(O)cc1O` (stereo not shown) [SH-a31, 5-(2,4-dihydroxy-5-isopropylphenyl)-4-(tetrahydrofuran-2-ylmethyl)-2,4-dihydro-[1,2,4]triazol-3-thione], the IC50 on rHSP90 came to 310 nM; in test [3] (Homo sapiens, MCF7, 72 h) it was 550 nM.

Regarding `CSc1nnc(-c2cc(C(C)C)c(O)cc2O)n1-c1ccc(CN2CCOCC2)cc1` [SMe-a02-TF, 4-isopropyl-6-{5-methylsulfanyl-4-[4-(morpholin-4-ylmethyl)-phenyl]-4H-[1,2,4]triazol-3-yl}-benzene-1,3-diol trifluoroacetate], the IC50 was 470 nM at rHSP90 and 530 nM in test [3] (Homo sapiens, MCF7, 72 h).

Regarding `COc1ccc(OC)c(-n2c(S)nnc2-c2ccc(O)cc2O)c1` [SH-b06, reference compound], the half-maximal inhibitory concentration (IC50) at rHSP90 was 690 nM; in test [3] (Homo sapiens, MCF7, 72 h) it was 77000 nM.

As to `CC(C)c1cc(-c2n[nH]c(=S)n2-c2ccc(CN3CCOCC3)cc2)c(O)cc1O` [SH-a02, 4-isopropyl-6-{5-mercapto-4-[4-(morpholin-4-ylmethyl)-phenyl]-4H-[1,2,4]triazol-3-yl}-benzene-1,3-diol], the IC50 amounted to 240 nM at rHSP90 and 36 nM in test [3] (Homo sapiens, MCF7, 72 h). In addition, the “amount of HSP90 client protein ERα” value in test [1] is “depression”. Also, the “amount of HSP90 client protein Her2” value in test [2] is “depression”.

As for `CC(C)c1cc(-c2n[nH]c(=S)n2-c2ccc(N3CCOCC3)cc2)c(O)cc1O` [SH-a01, 4-isopropyl-6-{5-mercapto-4-[4-(morpholin-4-yl)-phenyl]-4H-[1,2,4]triazol-3-yl}-benzene-1,3-diol], the IC50 on rHSP90 turned out to be 140 nM; in test [3], 14 nM.
